Measured values published in patent US9744164B2, “Neuroprotective polyphenol analogs” (Salk Institute for Biological Studies, priority 2011, dated 2017).

System: HT22 cells
Assay: in vitro ischemia assay (HT22 cell IAA assay)
Format: cell-based, mouse
Conditions: for improvement of neuroprotective activity/potency over Fisetin: relative to Fisetin, in vitro ischemia; for increase in survival: 20 μM IAA, over the neuroprotective concentration range
Description: For these studies, cultured HT22 mouse hippocampal cells were used as an in vitro stroke assay. HT22 cells were treated with iodoacetic acid (IAA), an irreversible inhibitor of glyceraldehyde 3-phosphate dehydrogenase (G3PDH) for 2 hr alone or in the presence of varying concentrations of Fisetin. G3PDH is an enzyme of the glycolysis pathway, which catalyzes the synthesis of 1,3-bisphosphoglycerate, a “high energy” intermediate used for the synthesis of ATP. Cell survival was measured using a standard colorimetric MTT (3-(4,5-dimethylthiazol-2-yl)-2,5-diphenyltetrazolium bromide) assay for cell survival MTT is a pale yellow substrate that is cleaved by living cells to yield a dark blue formazan product.
Cytotoxicity assay. Cell viability was determined by a modified version of 3-(4,5-dimethylthiazol-2-yl)-2,5-diphenyl tetrazolium bromide (MTT) assay based on the standard procedure (Maher, et al., Brain Research. (2007), supra). Cells were seeded onto 96-well microtiter plates at a density of 5×10^3 cells per well. For the in vitro ischemia assay, the next day, the medium was replaced with DMEM supplemented with 7.5% DFCS and the cells were treated with 20 μM iodoacetic acid (IAA) alone or in the presence of the different derivatives. After 2 hr the medium in each well was aspirated and replaced with fresh medium without IAA but containing the derivatives. 20 hr later, the medium in each well was aspirated and replaced with fresh medium containing 2.5 μg/ml MTT. After 4 hr of incubation at 37° C., the cells were solubilized with 100 μl of a solution containing 50% dimethylformamide and 20% SDS (pH 4.7). The absorbance at 570 nm was measured on the following day with a microplate reader (Molecular Devices). Results were confirmed by visual inspection of the wells. Controls included compound alone to test for toxicity and compound with no cells to test for interference with the assay chemistry.
For a primary screen, an in vitro ischemia model in combination with the HT22 nerve cell line (Maher, et al., Brain Research. (2007) 1173, 117-125) was chosen. […] To induce ischemia in the HT22 cells we used iodoacetic acid (IAA), a well-known, irreversible inhibitor of the glycolytic enzyme glyceraldehyde 3-phosphate dehydrogenase (G3PDH) (Winkler, et al., Exp. Eye Res. (2003) 76, 715-723). IAA has been used in a number of other studies to induce ischemia in nerve cells (Reshef, et al., Neurosci. Lett. (1997) 238, 37-40; Sperling, et al., Neursci. Lett. (2003) 351, 137-140; Rego, et al., Neurochem. Res. (1999) 24, 351-358; Sigalov, et al,. J. Mol. Neurosci. (2000) 15, 147-154; and Reiner, et al., Neurosci. Lett. (1990) 119, 175-178), including several recent screens for neuroprotective molecules (Biraboneye, et al., J. Med. Chem. (2009) 52 (14), 4358-4369; Biraboneye, et al., Chem. Med. Chem. (2010) 5 (1), 79-85). The changes following IAA treatment of neural cells are very similar to those seen in animal models of ischemic stroke (Lipton, et al., Physiol. Rev. (1999) 79, 1431-1568) and include alterations in membrane potential (Reiner, et al., Neurosci. Lett. (1990) 119, 175-178), breakdown of phospholipids (Taylor, et al., J. Pharmacol. Exp. Ther. (1996) 276, 1224-1231), loss of ATP (Winkler, et al., Exp. Eye Res. (2003) 76, 715-723; Sperling, et al., Neursci. Lett. (2003) 351, 137-140) and an increase in reactive oxygen species (ROS) (Taylor, et al., J. Pharmacol. Exp. Ther. (1996), supra; and Sperling, et al., Neursci. Lett. (2003) 351, 137-140).
The roles of the four different hydroxyl groups in the activity of Fisetin were studied. […] Cell viability was determined after 24 hr by the MTT assay. The ability to maintain GSH (GSH) was determined by treating HT22 cells with different doses of each derivative (1-10 μM) in the presence of 5 mM glutamate. After 24 hr cell extracts were prepared and analyzed for total GSH. Fisetin (10 μM) was used as a positive control. […]

Row | SMILES | improvement of neuroprotective activity/potency over Fisetin | also measured
1 | Oc1ccc(-c2cc(OC3CCCC3)c3ccccc3n2)cc1O [CMS-121, 4-cyclopentyloxy-2-(3,4-dihydroxyphenyl)quinoline] | > 400 fold | –
2 | O=c1c(O)c(-c2ccc(O)c(O)c2)oc2cc(O)ccc12 [Fisetin, 3,7,3′,4′-tetrahydroxy flavone] | – | increase in survival (HT22 cells): greater than 85%
3 | COc1ccc(/C=C/C(=O)c2cc(C)c(C)cc2O)cc1OCc1ccccc1 [CMS-086, (E)-3-(3-(benzyloxy)-4-methoxyphenyl)-1-(2-hydroxy-4,5-dimethylphenyl)prop-2-en-1-one] | – | EC50 in vitro ischemia (HT22 cells, 20 μM IAA 2 hr, viability by MTT after 24 hr, 'no' = no protection): no
4 | O=c1cc(-c2ccccc2)oc2cc(O)c(O)c(O)c12 [Baicalein, 5,6,7-trihydroxyflavone] | – | increase in survival (HT22 cells): greater than 80%
5 | CCOc1cc(-c2ccc(O)c(O)c2)nc2ccccc12 [CMS-023, 4-ethoxy-2-(3,4-dihydroxyphenyl)quinoline] | ~140 fold | improvement of neuroprotective activity relative to CMS-007: ~2 fold
6 | O=c1c(O)c(-c2ccc(O)c(O)c2)oc2ccccc12 [CMS-04P, reference compound] | ~6 fold | –
7 | O=c1c(O)c(-c2ccc(N3CCCC3)c(O)c2)oc2c1ccc1ccccc12 [CMS-140, 3-hydroxy-2-(3-hydroxy-4-(pyrrolidin-1-yl)phenyl)-4H-benzo[h]chromen-4-one] | up to 600 fold | –
8 | COc1cc(-c2ccc(O)c(O)c2)nc2ccccc12 [CMS-007, 4-methoxy-2-(3,4-dihydroxyphenyl)quinoline] | ~75 fold | –
9 | CC(C)Oc1cc(-c2ccc(O)c(O)c2)nc2ccccc12 [CMS-024, 4-isopropoxy-2-(3,4-dihydroxyphenyl)quinoline] | – | improvement of neuroprotective activity relative to CMS-007: ~2 fold
